Results on one compound are retold here after patent US20260216054A1, “COMPOSITIONS COMPRISING EPILOBIUM FLEISCHERI EXTRACT FOR TREATING SIGNS OF AGING” (DSM IP Assets B.V., priority 2023, published 2026).

This experiment concerns 70% normal and 30% senescent human dermal fibroblasts. Nature of the experiment: Senolytic activity study (SA-beta-galactosidase, flow cytometry). The experiment is classed as cell-based. The conditions noted are these: 1.5 μM, 72 hours. The method, then: Normal and senescent cell populations were obtained from normal human dermal fibroblasts. For the normal cell population, the cells were seeded in cell culture medium (Dulbecco's Modified Eagle Medium supplemented with 10% serum and 1% antibiotics) and allowed to adhere and proliferate in a humidified cell incubator maintaining 37° C. and 5% CO2. These were then passaged or collected when 90% confluent. For the senescent cell population, the normal fibroblast cells were at this stage shortly exposed to 200 μM H2O2 followed by normal cell culture medium. Several days later, the cells were treated again with H2O2 to obtain a fully senescent population. Both normal and senescent populations were mixed into a 70% normal and 30% senescent cell population and represented the treatment population. Afterward, the 70% normal and 30% senescent cell population were seeded in cell culture medium and allowed to adhere in the cell incubator. […] Afterward, senescence-associated beta-galactosidase was visualized—a well-known senescence marker—in the cells to quantify the senescence levels using flow cytometry. […] Data are normalized to the untreated control (30% senescent cells and 70% normal cells) and expressed as the mean±SD (n=4).
On the technique in general: Flow cytometry measures light scatter and fluorescence of single cells or particles in a stream.

On to `CC1(C)CCC(c2ccc(Cl)cc2)=C(CN2CCN(c3ccc(C(=O)NS(=O)(=O)c4ccc(N[C@H](CCN5CCOCC5)CSc5ccccc5)c(S(=O)(=O)C(F)(F)F)c4)cc3)CC2)C1` [Navitoclax], for which the “Senescent cells (%)” value (70% normal/30% senescent mix, normalized to untreated control (30%), mean, n=4) amounted to 10%. Moreover, the Significant senolytic effect result (versus CTRL) is “Yes”.
